Measured values: patent publication US10125098B2, “Therapeutic compounds and methods of use thereof” (GENENTECH, INC., priority 2014, dated 2018)
Where a name gives a salt, the structure may show the parent alone. Read-outs that look alike come from different tables or passages of the source.

How the values were obtained:
[1] = molecular target: T1, NaV1.5 (Homo sapiens, UniProt Q14524); assay: Patch voltage clamp electrophysiology assay (EP), NaV1.5; assay type: cell-based; details: HEK-293 cells stably expressing NaV1.5 with β1 subunit, whole-cell patch clamp, membrane potential −60 mV (inactivated state)
T1 construct: permanently transfected with an expression vector containing the full-length cDNA coding for the desired human sodium channel α-subunit; expressed in transfected cells; host or cells: HEK-293
Procedure, shortened: (§1)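 HEK-293 cells stably expressing human α-subunit with β1; whole-cell patch clamp (PatchXpress or manual), ambient temperature, pH 7.4 external NaCl, CsF internal. Held at −60 mV (full inactivation), stepped to −150 mV for 20 ms, then test pulse; percent current decrease after compound wash-on taken as block.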

[2] = molecular target: T2, human NaV1.7 (Homo sapiens, UniProt Q15858); assay: Patch voltage clamp electrophysiology assay (EP), NaV1.7; assay type: cell-based; details: HEK-293 cells stably expressing NaV1.7 with β1 subunit; whole-cell patch clamp, membrane potential −60 mV (inactivated state)
T2 construct: permanently transfected with an expression vector containing the full-length cDNA coding for the desired human sodium channel α-subunit; expressed in transfected cells; host or cells: HEK-293
Procedure, shortened: as §1

[3] = molecular target: T3, hNav1.7 (Homo sapiens, UniProt Q15858); assay: Tritiated compound binding (LBA) to membranes from cells expressing hNav1.7 and the β1 subunit, competitive binding; details: competitive binding vs 100 pM [3H]compound, 18 h, room temperature, membranes with hNav1.7 and β1 subunit
T3 construct: expressed in transfected cells
Procedure, shortened: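 Membranes from cells expressing hNav1.7 with β1 were incubated 18 h at room temperature with 100 pM tritiated formula (I) compound and increasing test compound, in 100 mM NaCl, 20 mM Tris HCl pH 7.4, 0.01% BSA.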

[4] = human, HEK-293 cells stably expressing human NaV1.5 with β1 subunit, pH 7.4

T1 sequence (Q14524 whole entry): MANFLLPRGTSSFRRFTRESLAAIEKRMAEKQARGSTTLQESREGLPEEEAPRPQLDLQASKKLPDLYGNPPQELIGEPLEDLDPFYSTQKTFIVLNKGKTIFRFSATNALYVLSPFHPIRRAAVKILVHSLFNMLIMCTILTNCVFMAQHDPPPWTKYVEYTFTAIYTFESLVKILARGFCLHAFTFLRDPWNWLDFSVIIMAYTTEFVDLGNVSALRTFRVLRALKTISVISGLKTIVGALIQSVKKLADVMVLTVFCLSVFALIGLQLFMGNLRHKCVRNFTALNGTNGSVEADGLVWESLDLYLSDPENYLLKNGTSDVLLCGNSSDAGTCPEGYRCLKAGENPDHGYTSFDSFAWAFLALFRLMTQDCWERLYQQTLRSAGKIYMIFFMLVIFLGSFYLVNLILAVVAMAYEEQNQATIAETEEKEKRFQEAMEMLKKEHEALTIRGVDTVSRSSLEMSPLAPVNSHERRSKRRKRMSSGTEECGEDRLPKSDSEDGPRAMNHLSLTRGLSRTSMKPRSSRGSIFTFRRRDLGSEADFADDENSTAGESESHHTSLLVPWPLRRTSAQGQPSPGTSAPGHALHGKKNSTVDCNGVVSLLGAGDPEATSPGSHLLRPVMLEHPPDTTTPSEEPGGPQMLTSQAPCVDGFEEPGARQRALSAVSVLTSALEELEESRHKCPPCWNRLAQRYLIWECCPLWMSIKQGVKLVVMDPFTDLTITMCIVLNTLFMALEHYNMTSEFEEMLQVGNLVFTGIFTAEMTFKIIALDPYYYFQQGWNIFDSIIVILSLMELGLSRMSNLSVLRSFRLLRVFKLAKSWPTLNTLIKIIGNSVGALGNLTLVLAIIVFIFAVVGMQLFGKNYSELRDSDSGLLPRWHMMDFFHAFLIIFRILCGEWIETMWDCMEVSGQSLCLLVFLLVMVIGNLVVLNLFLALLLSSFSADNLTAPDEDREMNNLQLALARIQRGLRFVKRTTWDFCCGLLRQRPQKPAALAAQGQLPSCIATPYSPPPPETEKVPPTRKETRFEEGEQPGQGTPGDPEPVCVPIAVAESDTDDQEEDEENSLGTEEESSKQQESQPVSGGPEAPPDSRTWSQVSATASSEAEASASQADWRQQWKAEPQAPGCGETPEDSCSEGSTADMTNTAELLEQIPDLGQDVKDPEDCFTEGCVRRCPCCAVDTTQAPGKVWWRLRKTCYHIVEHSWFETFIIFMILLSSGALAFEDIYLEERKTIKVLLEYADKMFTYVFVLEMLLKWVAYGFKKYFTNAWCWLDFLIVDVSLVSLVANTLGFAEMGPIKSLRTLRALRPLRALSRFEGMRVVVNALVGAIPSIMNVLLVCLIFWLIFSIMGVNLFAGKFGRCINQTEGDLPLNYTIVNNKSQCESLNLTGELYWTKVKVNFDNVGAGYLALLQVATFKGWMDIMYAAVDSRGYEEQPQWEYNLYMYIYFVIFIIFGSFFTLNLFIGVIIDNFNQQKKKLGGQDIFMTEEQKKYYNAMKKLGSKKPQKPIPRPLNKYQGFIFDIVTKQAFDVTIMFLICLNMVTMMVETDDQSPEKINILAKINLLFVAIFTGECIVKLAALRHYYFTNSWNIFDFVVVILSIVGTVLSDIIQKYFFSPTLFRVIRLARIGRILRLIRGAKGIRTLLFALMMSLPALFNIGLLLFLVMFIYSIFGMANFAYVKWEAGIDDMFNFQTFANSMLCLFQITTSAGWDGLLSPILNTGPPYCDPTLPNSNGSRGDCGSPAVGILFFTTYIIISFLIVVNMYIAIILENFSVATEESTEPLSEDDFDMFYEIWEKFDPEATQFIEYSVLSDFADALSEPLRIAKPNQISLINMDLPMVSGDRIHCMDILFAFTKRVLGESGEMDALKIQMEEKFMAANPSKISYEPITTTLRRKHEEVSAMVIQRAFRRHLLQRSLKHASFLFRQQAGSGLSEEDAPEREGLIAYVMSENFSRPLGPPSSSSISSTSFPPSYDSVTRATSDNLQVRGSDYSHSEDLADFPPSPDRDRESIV
T3 sequence (Q15858 1-1977 isoform Q15858-3): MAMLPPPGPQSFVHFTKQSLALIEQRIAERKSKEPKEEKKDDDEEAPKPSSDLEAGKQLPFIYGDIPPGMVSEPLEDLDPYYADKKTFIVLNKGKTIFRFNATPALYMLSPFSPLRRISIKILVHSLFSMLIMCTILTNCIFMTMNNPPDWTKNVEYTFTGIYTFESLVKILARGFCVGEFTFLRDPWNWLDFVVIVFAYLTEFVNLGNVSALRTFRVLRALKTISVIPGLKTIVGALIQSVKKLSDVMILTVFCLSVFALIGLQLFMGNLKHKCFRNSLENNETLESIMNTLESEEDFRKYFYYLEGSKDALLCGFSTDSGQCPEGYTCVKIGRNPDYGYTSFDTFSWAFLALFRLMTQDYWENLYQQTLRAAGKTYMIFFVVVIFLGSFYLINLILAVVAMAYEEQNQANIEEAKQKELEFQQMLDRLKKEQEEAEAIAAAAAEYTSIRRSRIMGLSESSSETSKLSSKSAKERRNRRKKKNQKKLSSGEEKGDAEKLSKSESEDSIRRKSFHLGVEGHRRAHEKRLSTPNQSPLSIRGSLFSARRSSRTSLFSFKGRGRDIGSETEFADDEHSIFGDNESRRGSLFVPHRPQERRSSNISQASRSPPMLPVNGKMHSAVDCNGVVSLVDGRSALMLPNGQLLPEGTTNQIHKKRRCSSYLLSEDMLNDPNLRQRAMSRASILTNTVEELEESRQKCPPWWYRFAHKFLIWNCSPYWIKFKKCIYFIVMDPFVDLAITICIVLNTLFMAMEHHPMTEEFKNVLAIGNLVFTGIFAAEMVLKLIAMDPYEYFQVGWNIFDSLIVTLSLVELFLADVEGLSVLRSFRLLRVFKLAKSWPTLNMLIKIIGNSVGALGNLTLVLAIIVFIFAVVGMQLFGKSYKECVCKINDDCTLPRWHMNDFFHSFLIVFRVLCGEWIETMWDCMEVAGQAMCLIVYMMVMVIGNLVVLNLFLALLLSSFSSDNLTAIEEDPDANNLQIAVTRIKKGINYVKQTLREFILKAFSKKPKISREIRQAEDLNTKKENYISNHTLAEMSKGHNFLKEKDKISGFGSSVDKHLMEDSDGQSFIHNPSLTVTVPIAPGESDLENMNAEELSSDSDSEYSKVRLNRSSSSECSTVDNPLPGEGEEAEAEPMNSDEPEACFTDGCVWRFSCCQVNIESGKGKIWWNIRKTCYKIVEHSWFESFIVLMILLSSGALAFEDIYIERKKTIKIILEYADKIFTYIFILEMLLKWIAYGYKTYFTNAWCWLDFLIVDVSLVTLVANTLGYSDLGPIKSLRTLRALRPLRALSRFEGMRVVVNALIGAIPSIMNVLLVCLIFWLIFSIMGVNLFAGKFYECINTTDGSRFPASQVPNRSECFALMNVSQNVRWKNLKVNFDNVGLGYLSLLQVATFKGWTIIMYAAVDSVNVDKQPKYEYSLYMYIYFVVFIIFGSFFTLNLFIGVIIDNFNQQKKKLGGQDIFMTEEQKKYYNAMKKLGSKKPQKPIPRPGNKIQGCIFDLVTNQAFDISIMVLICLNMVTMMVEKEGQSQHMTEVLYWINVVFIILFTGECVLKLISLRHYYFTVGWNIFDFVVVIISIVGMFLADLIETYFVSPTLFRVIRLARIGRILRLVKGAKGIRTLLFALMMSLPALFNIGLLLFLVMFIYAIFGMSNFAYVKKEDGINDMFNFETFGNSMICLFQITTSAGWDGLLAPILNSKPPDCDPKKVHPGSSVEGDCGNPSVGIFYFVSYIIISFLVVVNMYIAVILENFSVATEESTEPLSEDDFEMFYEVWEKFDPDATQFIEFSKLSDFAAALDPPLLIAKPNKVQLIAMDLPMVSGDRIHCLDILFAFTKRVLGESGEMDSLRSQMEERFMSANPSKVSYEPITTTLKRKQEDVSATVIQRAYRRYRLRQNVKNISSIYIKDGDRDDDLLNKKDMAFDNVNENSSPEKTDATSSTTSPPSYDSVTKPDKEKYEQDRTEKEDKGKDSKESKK
T3 sequence (Q07699 19-218 partner): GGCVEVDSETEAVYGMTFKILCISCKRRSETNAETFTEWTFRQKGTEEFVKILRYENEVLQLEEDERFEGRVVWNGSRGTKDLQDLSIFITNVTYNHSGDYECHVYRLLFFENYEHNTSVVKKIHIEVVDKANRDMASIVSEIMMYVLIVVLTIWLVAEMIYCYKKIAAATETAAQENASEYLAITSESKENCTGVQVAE
T2 sequence (Q15858 1-1977 isoform Q15858-3): as the sequence (Q15858 1-1977 isoform Q15858-3) above
T2 sequence (Q07699 19-218 partner): as the sequence (Q07699 19-218 partner) above

Row | IC50 [2] [nM] | IC50 [3] [nM] | Compound | IC50 ([1]; read-out: Nav1.5) [nM] | IC50 [1, 4] [nM]
1 | 510 | 23 | CC1(COc2cc(F)c(C(=O)N3C[C@H](F)C[C@H]3C(=O)O)cc2C2CC2)CN([C@@H](c2ccccc2)c2cc(Cl)cc(Cl)c2)C1 (single isomer, unassigned) [Example 117] | 8500 | –
2 | 1000 | 80 | C[C@@H](c1cc(Cl)cc(Cl)c1)N1CCC(COc2cc(F)c(C(=O)N3CSC[C@H]3C(=O)O)cc2C2CC2)CC1 [Example 159, (4R)-3-[5-cyclopropyl-4-[[1-[(1S)-1-(3,5-dichlorophenyl)ethyl]-4-piperidyl]methoxy]-2-fluoro-benzoyl]thiazolidine-4-carboxylic acid] | 17000 | –
3 | 1300 | 180 | CC[C@@H]1CCN(C(=O)c2cc(C3CC3)c(OCC34CC5CC(CC(C5)C3)C4)cc2F)[C@H]1C(=O)O [Example 168b, (2R,3R)-1-[4-(1-adamantylmethoxy)-5-cyclopropyl-2-fluoro-benzoyl]-3-ethyl-pyrrolidine-2-carboxylic acid] | 8200 | –
4 | 750 | 90 | CC1O[C@H](C)[C@@H](C(=O)O)N1C(=O)c1cc(C2CC2)c(OCC23CC4CC(CC(C4)C2)C3)cc1F (stereo partly drawn) [Example 166, (4S,5R)-3-[4-(1-adamantylmethoxy)-5-cyclopropyl-2-fluoro-benzoyl]-2,5-dimethyl-oxazolidine-4-carboxylic acid] | 13000 | –
5 | 520 | 170 | O=C(O)[C@@H]1CCCN1C(=O)c1cc(C2CC2)c(OCC23CCCCC2C3)cc1F (stereo partly drawn) [Example 69, (4-(bicyclo[4.1.0]heptan-1-ylmethoxy)-5-cyclopropyl-2-fluorobenzoyl)-L-proline] | – | ≥ 30000
6 | 2900 | 190 | O=C(O)[C@@H]1CCCN1C(=O)c1cc(C2CC2)c(OCC2CCN(Cc3cc(F)cc(Cl)c3)CC2)cc1F [Example 190, (S)-1-(4-((1-(3-chloro-5-fluorobenzyl)piperidin-4-yl)methoxy)-5-cyclopropyl-2-fluorobenzoyl)pyrrolidine-2-carboxylic acid] | – | ≥ 30000
7 | 130 | 12 | C[C@H]1OCN(C(=O)c2cc(C3CC3)c(OCC3CCN(C(c4cc(Cl)cc(Cl)c4)C(F)(F)F)CC3)cc2F)[C@@H]1C(=O)O (stereo partly drawn) [Example 226, (4S,5R)-3-(5-cyclopropyl-4-((1-(1-(3,5-dichlorophenyl)-2,2,2-trifluoroethyl)-piperidin-4-yl)methoxy)-2-fluorobenzoyl)-5-methyloxazolidine-4-carboxylic acid] | 6100 | –
8 | 320 | 7.6 | C[C@H]1OCN(C(=O)c2cc(C3CC3)c(OCC3CCN([C@@H](c4cc(Cl)cc(Cl)c4)C(F)(F)F)CC3)cc2F)[C@@H]1C(=O)O (single isomer, unassigned) [Example 138b] | 11000 | –
9 | 380 | 36 | CO[C@@H]1CN(C(=O)c2cc(C3CC3)c(OCC34CC5CC(CC(C5)C3)C4)cc2F)[C@H](C(=O)O)[C@H]1C [Example 207, (2S,3R,4S)-1-(4-(adamantan-1-ylmethoxy)-5-cyclopropyl-2-fluorobenzoyl)-4-methoxy-3-methylpyrrolidine-2-carboxylic acid] | 16000 | –
10 | 1200 | 170 | O=C(O)[C@@H]1CS(=O)(=O)CN1C(=O)c1cc(C2CC2)c(OCC23CC4CC(CC(C4)C2)C3)cc1F [Example 143, (4R)-3-[4-(1-adamantylmethoxy)-5-cyclopropyl-2-fluoro-benzoyl]-1,1-dioxo-1,3-thiazolidine-4-carboxylic acid] | 21000 | –
11 | 300 | 6.9 | C[C@H]1OCN(C(=O)c2cc(C3CC3)c(OCC3CCN([C@H](c4cc(Cl)cc(Cl)c4)C(F)(F)F)CC3)cc2F)[C@@H]1C(=O)O (single isomer, unassigned) [Example 138a] | 13000 | –
12 | 13000 | ≥ 10000 | O=C(c1cc(C2CC2)c(OCC23CC4CC(CC(C4)C2)C3)cc1F)N1C[C@H](F)C[C@H]1C(O)(C(F)(F)F)C(F)(F)F [Example 201, (4-(adamantan-1-ylmethoxy)-5-cyclopropyl-2-fluorophenyl)((2S,4R)-4-fluoro-2-(1,1,1,3,3,3-hexafluoro-2-hydroxypropan-2-yl)pyrrolidin-1-yl)methanone] | 24000 | –
13 | 290 | 27 | O=C(NC(C(=O)O)C1CC1)c1cc(C2CC2)c(COc2cc(Cl)cc(OC(F)(F)F)c2)cc1F (stereo in doubt) [Example 120, (R)-2-(4-((3-chloro-5-(trifluoromethoxy)phenoxy)methyl)-5-cyclopropyl-2-fluorobenzamido)-2-cyclopropylacetic acid] | 14000 | –
14 | 790 | 73 | CC(c1cc(Cl)cc(Cl)c1)N1CCC(COc2cc(F)c(C(=O)N3CCC[C@H]3C(=O)O)cc2C2CC2)CC1 (single isomer, unassigned) [Example 79b] | – | ≥ 30000
15 | 13.5 | 19.6 | O=C(O)[C@@H]1CCCN1C(=O)c1cc(C2CC2)c(OCC23CC4CC(CC(C4)C2)C3)cc1F [Example 1, (S)-1-(4-(adamantan-1-ylmethoxy)-5-cyclopropyl-2-fluorobenzoyl)pyrrolidine-2-carboxylic acid] | 3500 | –
16 | 1000 | 87 | CO[C@H]1CCN(C(=O)c2cc(C3CC3)c(OCC34CC5CC(CC(C5)C3)C4)cc2F)[C@@H]1C(=O)O [Example 76, (2S,3 S)-1-(4-(adamantan-1-ylmethoxy)-5-cyclopropyl-2-fluorobenzoyl)-3-methoxypyrrolidine-2-carboxylic acid] | 17000 | –
17 | 3300 | 610 | CC[C@H]1CCN(C(=O)c2cc(C3CC3)c(OCC34CC5CC(CC(C5)C3)C4)cc2F)[C@@H]1C(=O)O [Example 168a, (2S,3S)-1-[4-(1-adamantylmethoxy)-5-cyclopropyl-2-fluoro-benzoyl]-3-ethyl-pyrrolidine-2-carboxylic acid] | 6800 | –
18 | 790 | 60 | O=C(O)[C@@H]1[C@@H](F)CCN1C(=O)c1cc(C2CC2)c(OCC23CC4CC(CC(C4)C2)C3)cc1F [Example 64, (2R,3S)-1-(4-((adamantan-1-yl)methoxy)-5-cyclopropyl-2-fluorobenzoyl)-3-fluoropyrrolidine-2-carboxylic acid] | 8500 | –
19 | 580 | 12 | C[C@H]1CCN(C(=O)c2cc(C3CC3)c(OCC3(C)CN([C@@H](c4ccccc4)c4cc(Cl)cc(Cl)c4)C3)cc2F)[C@@H]1C(=O)O (single isomer, unassigned) [Example 116] | 15000 | –
20 | 380 | 16 | O=C(O)[C@@H]1C[C@@H](F)CN1C(=O)c1cc(C2CC2)c(OCC2CCN([C@@H](c3ccccc3)c3cc(Cl)cc(Cl)c3)CC2)cc1F (single isomer, unassigned) [Example 125] | 6200 | –
21 | 980 | 390 | O=C(O)[C@@H]1C[C@H](O)CN1C(=O)c1cc(C2CC2)c(OCC23CC4CC(CC(C4)C2)C3)cc1F [Example 161, (2S,4S)-1-[4-(1-adamantylmethoxy)-5-cyclopropyl-2-fluoro-benzoyl]-4-hydroxy-pyrrolidine-2-carboxylic acid] | – | ≥ 30000
22 | 160 | 21 | CC1(C)[C@H]2CC[C@H](COc3cc(F)c(C(=O)N4CCC[C@H]4C(=O)O)cc3C3CC3)[C@@H]1C2 [Example 90, (S)-1-(5-cyclopropyl-4-(((1S, 2S, 5S)-6,6-dimethylbicyclo[3.1.1]heptan-2-yl)methoxy)-2-fluorobenzoyl)pyrrolidine-2-carboxylic acid] | 13000 | –
23 | 340 | 26 | CC(c1ccc(Cl)cc1Cl)N1CCC(COc2cc(F)c(C(=O)N3C[C@H](F)C[C@H]3C(=O)O)cc2C2CC2)CC1 (stereo partly drawn) [Example 174] | – | ≥ 30000
24 | 410 | 31 | O=C(O)[C@@H]1CCCN1C(=O)c1cc(C2CC2)c(OCC2CCN([C@@H](c3cc(Cl)cc(Cl)c3)C(F)(F)F)CC2)cc1F (single isomer, unassigned) [Example 123b] | 7700 | –
25 | 3900 | 630 | O=C(O)[C@@H]1CCCN1C(=O)c1cc(C2CC2)c(OCC2CCN(Cc3nc(-c4ccccc4Cl)no3)CC2)cc1F [Example 197, (S)-1-(4-((1-((3-(2-chlorophenyl)-1,2,4-oxadiazol-5-yl)methyl)piperidin-4-yl)methoxy)-5-cyclopropyl-2-fluorobenzoyl)pyrrolidine-2-carboxylic acid trifluoroacetate] | – | ≥ 30000

Row | Compound | IC50 [2] [nM] | IC50 [3] [nM] | IC50 ([1]; read-out: Nav1.5) [nM] | IC50 [1, 4] [nM]
26 | CC[C@@H](C)[C@H](NC(=O)c1cc(Cl)c(Oc2cnc(OCC(C)C)c(Cl)c2)cc1F)C(=O)O [Example 186, (2S,3R)-2-(5-chloro-4-((5-chloro-6-isobutoxypyridin-3-yl)oxy)-2-fluorobenzamido)-3-methylpentanoic acid] | 8300 | 350 | 12000 | –
